“And” between values parts separate entries of the source, which are not always exact repeats. Equal entries are not always repeated.
Experiments:
rat ASCT2 = target: T1, rat ASCT2 (Rattus norvegicus, UniProt D3ZJ25); assay: Whole-cell patch-clamp recording of ASCT2-associated anion current in transfected HEK293 cells; type: cell-based; settings: for Anion current activity: at the maximum concentration tested, 500 μM; for Anion current response / ligand character: whole-cell current, result in words; for Km: apparent Km for the active compounds from anion current dose response, called Ki in text for the inhibitors L-DOPS and γ-FBP; for Imax, maximum currents relative to 1 mM alanine: whole-cell anion current, membrane potential 0 mV, internal 130 mM NaSCN and 10 mM alanine, negative = outward current (inhibitor)
T1 construct: The coding region of the cDNA was subcloned into the EcoRI site of the pBK-CMV vector; expressed in transfected cells; host or cells: HEK293 (human embryonic kidney), transient transfection, pBK-CMV vector
T1 sequence (D3ZJ25 1-555): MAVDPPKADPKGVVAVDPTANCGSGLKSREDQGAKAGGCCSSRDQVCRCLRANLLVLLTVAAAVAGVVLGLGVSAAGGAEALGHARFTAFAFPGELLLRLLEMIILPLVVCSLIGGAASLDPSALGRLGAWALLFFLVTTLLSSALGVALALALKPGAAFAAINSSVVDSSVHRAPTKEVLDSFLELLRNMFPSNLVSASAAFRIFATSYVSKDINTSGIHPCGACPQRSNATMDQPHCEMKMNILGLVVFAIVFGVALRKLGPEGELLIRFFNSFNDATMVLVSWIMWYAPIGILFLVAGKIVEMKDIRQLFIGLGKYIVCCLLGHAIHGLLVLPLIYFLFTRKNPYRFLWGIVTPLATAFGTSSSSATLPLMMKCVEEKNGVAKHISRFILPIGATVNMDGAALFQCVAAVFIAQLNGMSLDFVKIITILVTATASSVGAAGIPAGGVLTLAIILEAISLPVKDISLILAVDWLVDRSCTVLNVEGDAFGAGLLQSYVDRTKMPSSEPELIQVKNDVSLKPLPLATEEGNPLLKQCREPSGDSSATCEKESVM
Source text: (§1) We used transporter-mediated anion current as a measure of transport/inhibition activity […] We have previously shown that anion current is a measure of transport activity, due to the kinetic coupling of transport and anion flux, and this fact is also well established for the homologous glutamate transporters, which have a much more rigorously determined pharmacology. Anion current is activated when the transporter visits certain states in the transport cycle, such as the fully Na^+/substrate occupied state (substrate-induced anion conductance), or the Na^+-bound state (leak conductance). Thus, transported substrates induce anion current and non-transported inhibitors block the leak anion current. […] Functional characterization by patch clamping is a powerful approach when combined with virtual screening that prioritizes molecules from large libraries, but precludes screening of large amounts of compounds due to its labor-intensive nature.
cDNA coding for rat ASCT2 was kindly provided by S. Bröer. The coding region of the cDNA was subcloned into the EcoRI site of the pBK-CMV vector (Stratagene). The cDNA construct was used to transiently transfect human embryonic kidney cells (HEK293, ATCC No. CGL 1573) with leptrime reagent (Polyplus, Ilkrich, France). Transfection was performed as detailed in the supplier’s instructions. Electrophysiological recordings were performed 24–48 h after transfection.
ASCT2-associated whole-cell currents were recorded with an Adams & List EPC7 amplifier (HEKA, Lambrecht, Germany) using voltage-clamp conditions. Open-tip electrode resistances were 2–3 MΩ and the series resistance (R S) was 5–8 MΩ. R S was not compensated in the recordings, as compensation had no effect on the magnitude of the observed currents. The extracellular bath solution contained (in mM): 140 NaMES, 2 MgGluconate2, 2 CaGluconate2, and 10 HEPES (MES = methanesulfonic acid, pH 7.4 / NaOH). The pipette solution contained (in mM): 130 NaSCN, 2 MgCl2, 10 EGTA, 10 HEPES, and 10 L-alanine/cysteine (pH 7.3 / NaOH). Using this intracellular solution, the transporters operate in the Na^+/alanine exchange mode. Here, external alanine is exchanged with internal alanine in the absence of net transport. The exchange mode is associated with the activation of an uncoupled anion current, which was used as an indirect measure of transport activity. The currents were low pass filtered at 3 kHz (EPC7 built-in filter) and digitized with a digitizer board (Digidata 1200, Axon Instruments, Foster City, CA, USA) at a sampling rate of 10–50 kHz (controlled by software, Axon PClamp7). All experiments were performed at room temperature. Rapid solution exchange was essentially performed as described previously. Briefly, substrates and inhibitors were applied to the ASCT2-expressing HEK293 cells with a quartz tube (350 μm tube diameter) positioned at a distance of ≈0.5 mm to the cell. The linear flow rate of the solutions emerging from the opening of the tube was approximately 5–10 cm/s.

Solubility in water = type: physicochemical; settings: required 5% DMSO at concentrations higher than 1 mM
ASCT2 = target: T2, ASCT2 (Rattus norvegicus, UniProt D3ZJ25); assay: Voltage-jump exchange-mediated transient transport current in ASCT2-expressing cells; type: cell-based; settings: benzylserine 5 mM (S2 Fig)
T2 construct: expressed in transfected cells
T2 sequence (D3ZJ25 1-555): T1 sequence (D3ZJ25 1-555)
Source text: as §1
Supplementary file pcbi.1004477.s002.pdf: S2 Fig Exchange current is mediated by a transported substrate, but not by a non-transported inhibitor. Voltage jumps induce transport-mediated exchange current (due to voltage-dependent re-equilibration of the translocation equilibrium) in the presence of the transported substrate alanine (1 mM, black trace), but not in the presence of the non-transported inhibitor benzylserine (5 mM, red trace). […]

[1] = target: T3, ASCT2 mediated glutamine uptake in C8161 melanoma cells (Homo sapiens, UniProt Q15758); parameters: method as in PMID 24531984; settings: cited from earlier work
T3 construct: C8161 cells (1 × 10^5/well) were incubated with [^3H]-L-glutamine; endogenous in cells; host or cells: C8161 human melanoma cell line
T3 sequence (Q15758 1-541): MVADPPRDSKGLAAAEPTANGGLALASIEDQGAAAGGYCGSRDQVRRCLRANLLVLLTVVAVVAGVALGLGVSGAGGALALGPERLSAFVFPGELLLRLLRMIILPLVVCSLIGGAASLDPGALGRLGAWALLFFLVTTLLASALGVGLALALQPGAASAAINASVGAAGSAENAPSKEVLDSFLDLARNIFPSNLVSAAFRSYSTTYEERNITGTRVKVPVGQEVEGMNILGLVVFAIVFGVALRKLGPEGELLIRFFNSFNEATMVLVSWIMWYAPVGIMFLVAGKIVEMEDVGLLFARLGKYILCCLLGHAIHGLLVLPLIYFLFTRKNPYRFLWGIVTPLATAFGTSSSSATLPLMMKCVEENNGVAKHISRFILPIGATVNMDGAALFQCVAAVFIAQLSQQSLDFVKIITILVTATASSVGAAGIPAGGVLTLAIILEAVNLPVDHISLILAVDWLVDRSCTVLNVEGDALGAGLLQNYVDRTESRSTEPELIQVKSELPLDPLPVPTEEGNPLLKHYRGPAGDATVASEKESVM

For `Cc1ccc2[nH]c(C(=O)O)c(CN(C)Cc3ncc[nH]3)c2c1` [3-{[(1H-imidazol-2-ylmethyl)(methyl)amino]methyl}-5-methyl-1H-indole-2-carboxylic acid], the Anion current activity (rat ASCT2) was “inactive” and the Solubility in water (Solubility in water) was “poorly soluble in water”.

With `O=C(O)C1CC(OCc2ccccc2)CN1` (stereo not shown) [4-hydroxyproline-benzylether] the “Anion current response / ligand character” value (rat ASCT2) was “not significantly different from zero”.

In the case of `CC(C)(N)C(=O)O` [AIB], the Anion current response (rat ASCT2; at concentrations up to 5 mM) is reported as “did not elicit any significant response”.

In the case of `N[C@H](C(=O)O)[C@@H]1CC(Cl)=NO1` [Acivicin, reference compound], the Km (rat ASCT2) is reported as 5100 ± 1500 µM and the “Imax, maximum currents relative to 1 mM alanine” value (rat ASCT2) is reported as 0.45 ± 0.03.

For `C[C@H](N)C(=O)O` [Alanine], the Km (rat ASCT2) was 410 ± 20 µM and the “Imax, maximum currents relative to 1 mM alanine” value (rat ASCT2) was 1.

With `N[C@H](C(=O)O)[C@H](O)c1ccc(O)c(O)c1` [L-DOPS, reference compound] the Km (rat ASCT2) was 1950 ± 900 µM, the Ki (rat ASCT2; apparent affinity, inhibition of leak anion conductance, read-out: Ki) was ~2 mM and the “Inhibition of alanine-induced responses” value (rat ASCT2; at concentrations up to 5 mM) was “unable to significantly inhibit alanine-induced responses”. The “Imax, maximum currents relative to 1 mM alanine” value (rat ASCT2) was -0.03 ± 0.01 and the “Anion current response / ligand character” value (rat ASCT2) was “weak inhibitor”.

For `O=C(O)[C@H](Cc1c[nH]c2ccccc12)NCCc1ccccc1` [N-(2-phenylethyl)tryptophan], the Anion current activity (rat ASCT2) was “inactive” and the Solubility in water (Solubility in water) was “poorly soluble in water”.

For `CC(C)(S)[C@@H](N)C(=O)O` [Penicillamine, reference compound], the Km (rat ASCT2) was 1370 ± 680 µM, the “Imax, maximum currents relative to 1 mM alanine” value (rat ASCT2) was 0.68 ± 0.08 and the “Anion current response / ligand character” value (rat ASCT2) was “activated inwardly-directed anion currents”.

In the case of `N[C@@H](COCc1ccccc1)C(=O)O` [benzylserine], the “Exchange-mediated transient transport currents upon voltage jumps” value (ASCT2) is given as “unable to elicit exchange-mediated transient transport currents” and the IC50 [1] is given as 5.3 mM.

With `O=C(O)[C@H]1NCC[C@H]1O` [cis-3-hydroxyproline] the Km (rat ASCT2) was 19 ± 10 µM, the “Imax, maximum currents relative to 1 mM alanine” value (rat ASCT2) was 1.39 and 1.39 ± 0.1 and the “Anion current response / ligand character” value (rat ASCT2) was “activated inwardly-directed anion currents”.

With `O=C(O)[C@@H]1CCCN1` [proline, reference compound] the “Anion current response / ligand character” value (rat ASCT2) was “not an ASCT2 ligand”.

For `O=C(O)C1NCCS1` (stereo not shown) [thiazolidine-2-carboxylate], the Anion current response (rat ASCT2; at concentrations up to 5 mM) was “did not elicit any significant response”.

— publication PMC4596572, “Ligand Discovery for the Alanine-Serine-Cysteine Transporter (ASCT2, SLC1A5) from Homology Modeling and Virtual Screening” (PLoS Computational Biology, 2015)
